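Growth conditions: 96-well plates. Treatment: test compound, 48 hours, 5 concentrations. Analysis: linear interpolation between bracketing concentrations; unreached endpoints set to highest concentration. Abbreviation: GI50, concentration required for 50% inhibition of growth.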 Active and inactive are the calls of the source. No stated cut-off is given here; in the data, active = GI50 up to about 1.1 µM and inactive = higher.
How the values were obtained:
Experiment in all cases: NCI tumour cell line growth inhibition, 48 h
K562 = test system: K562
SK-OV-3 = test system: SK-OV-3
NCI-H460 = test system: NCI-H460
SNB-75 = test system: SNB-75
PC-3 = test system: PC-3
A498 = test system: A498
MOLT-4 = test system: MOLT-4
HOP-62 = test system: HOP-62
M14 = test system: M14
CAKI-1 = test system: CAKI-1
A549 = test system: A549
UACC-62 = test system: UACC-62
SF-268 = test system: SF-268
SN12C = test system: SN12C
T47D = test system: T47D
RXF 393 = test system: RXF 393
MCF7 = test system: MCF7
HOP-92 = test system: HOP-92
ACHN = test system: ACHN
DU-145 = test system: DU-145
HCT-116 = test system: HCT-116
OVCAR-5 = test system: OVCAR-5
UACC-257 = test system: UACC-257
SNB-19 = test system: SNB-19
SR = test system: SR
U-251 = test system: U-251
NCI-H522 = test system: NCI-H522
OVCAR-3 = test system: OVCAR-3
MDA-MB-435 = test system: MDA-MB-435
HCT-15 = test system: HCT-15
IGROV-1 = test system: IGROV-1
OVCAR-4 = test system: OVCAR-4
NCI/ADR-RES = test system: NCI/ADR-RES
COLO 205 = test system: COLO 205
BT-549 = test system: BT-549
EKVX = test system: EKVX
Malme-3M = test system: Malme-3M
HCC 2998 = test system: HCC 2998
UO-31 = test system: UO-31
NCI-H23 = test system: NCI-H23
SF-295 = test system: SF-295
SK-MEL-2 = test system: SK-MEL-2
KM12 = test system: KM12
SW-620 = test system: SW-620
SK-MEL-28 = test system: SK-MEL-28
CCRF-CEM = test system: CCRF-CEM
MDA-MB-231 = test system: MDA-MB-231
786-0 = test system: 786-0
OVCAR-8 = test system: OVCAR-8
RPMI-8226 = test system: RPMI-8226
SF-539 = test system: SF-539
HL-60 = test system: HL-60
SK-MEL-5 = test system: SK-MEL-5
NCI-H226 = test system: NCI-H226
MDA-N = test system: MDA-N
HT-29 = test system: HT-29
Hs-578T = test system: Hs-578T
LOX IMVI = test system: LOX IMVI
TK-10 = test system: TK-10

In the case of `Cc1n[nH]c(=O)n1/N=C/c1c[nH]c2ccccc12`, the GI50 (K562) is reported as > 100 µM (inactive), the GI50 (SK-OV-3) is reported as > 100 µM (inactive) and the GI50 (NCI-H460) is reported as > 100 µM (inactive). The GI50 (SNB-75) was 32.9 µM (inactive), the GI50 (PC-3) was > 100 µM (inactive) and the GI50 (A498) was > 100 µM (inactive). The GI50 (MOLT-4) was > 100 µM (inactive), the GI50 (HOP-62) was > 100 µM (inactive) and the GI50 (M14) was > 100 µM (inactive). The GI50 (CAKI-1) was > 100 µM (inactive), the GI50 (A549) was > 100 µM (inactive) and the GI50 (UACC-62) was > 100 µM (inactive). The GI50 (SF-268) was > 100 µM (inactive), the GI50 (SN12C) was > 100 µM (inactive) and the GI50 (T47D) was > 100 µM (inactive). The GI50 (RXF 393) was 20.9 µM (inactive), the GI50 (MCF7) was > 100 µM (inactive) and the GI50 (HOP-92) was > 100 µM (inactive). The GI50 (ACHN) was > 100 µM (inactive), the GI50 (DU-145) was > 100 µM (inactive) and the GI50 (HCT-116) was > 100 µM (inactive). The GI50 (OVCAR-5) was 83.4 µM (inactive), the GI50 (UACC-257) was > 100 µM (inactive) and the GI50 (SNB-19) was > 100 µM (inactive). The GI50 (SR) was > 100 µM (inactive), the GI50 (U-251) was > 100 µM (inactive) and the GI50 (NCI-H522) was > 100 µM (inactive). The GI50 (OVCAR-3) was > 100 µM (inactive), the GI50 (MDA-MB-435) was > 100 µM (inactive) and the GI50 (HCT-15) was greater than 100 µM. The GI50 (IGROV-1) was 35.2 µM (inactive), the GI50 (OVCAR-4) was > 100 µM (inactive) and the GI50 (NCI/ADR-RES) was > 100 µM (inactive). The GI50 (COLO 205) was > 100 µM (inactive), the GI50 (BT-549) was 38.4 µM (inactive) and the GI50 (EKVX) was 50.7 µM (inactive). For the same compound, the GI50 (Malme-3M) was > 100 µM (inactive), the GI50 (HCC 2998) was > 100 µM (inactive) and the GI50 (UO-31) was > 100 µM (inactive). The GI50 (NCI-H23) was 80.5 µM (inactive), the GI50 (SF-295) was > 100 µM (inactive) and the GI50 (SK-MEL-2) was > 100 µM (inactive). For the same compound, the GI50 (KM12) was > 100 µM (inactive), the GI50 (SW-620) was > 100 µM (inactive) and the GI50 (SK-MEL-28) was > 100 µM (inactive). For the same compound, the GI50 (CCRF-CEM) was > 100 µM (inactive), the GI50 (MDA-MB-231) was > 100 µM (inactive) and the GI50 (786-0) was > 100 µM (inactive). The GI50 (OVCAR-8) was > 100 µM (inactive), the GI50 (RPMI-8226) was > 100 µM (inactive) and the GI50 (SF-539) was > 100 µM (inactive).
With `Cc1cn(C2CC(OP(=O)(O)OCC3OC(n4c[n+]([BH2-]C#N)c5c(=O)[nH]c(N)nc54)CC3O)C(CO)O2)c(=O)[nH]c1=O` (configuration not stated) the GI50 (K562) was > 100 µM (inactive), the GI50 (NCI-H460) was > 100 µM (inactive) and the GI50 (SNB-75) was > 100 µM (inactive). The GI50 (PC-3) was > 100 µM (inactive), the GI50 (A498) was > 100 µM (inactive) and the GI50 (MOLT-4) was > 100 µM (inactive). For the same compound, the GI50 (HOP-62) was > 100 µM (inactive), the GI50 (M14) was > 100 µM (inactive) and the GI50 (CAKI-1) was > 100 µM (inactive). For the same compound, the GI50 (A549) was > 100 µM (inactive), the GI50 (UACC-62) was > 100 µM (inactive) and the GI50 (SF-268) was > 100 µM (inactive). The GI50 (HL-60) was > 100 µM (inactive), the GI50 (SN12C) was > 100 µM (inactive) and the GI50 (T47D) was > 100 µM (inactive). The GI50 (SK-MEL-5) was > 100 µM (inactive), the GI50 (RXF 393) was > 100 µM (inactive) and the GI50 (MCF7) was > 100 µM (inactive). For the same compound, the GI50 (HOP-92) was > 100 µM (inactive), the GI50 (ACHN) was > 100 µM (inactive) and the GI50 (DU-145) was > 100 µM (inactive). For the same compound, the GI50 (HCT-116) was > 100 µM (inactive), the GI50 (OVCAR-5) was > 100 µM (inactive) and the GI50 (UACC-257) was > 100 µM (inactive). For the same compound, the GI50 (SNB-19) was > 100 µM (inactive), the GI50 (SR) was > 100 µM (inactive) and the GI50 (U-251) was > 100 µM (inactive). For the same compound, the GI50 (NCI-H522) was > 100 µM (inactive), the GI50 (OVCAR-3) was > 100 µM (inactive) and the GI50 (HCT-15) was greater than 100 µM. For the same compound, the GI50 (IGROV-1) was > 100 µM (inactive), the GI50 (OVCAR-4) was > 100 µM (inactive) and the GI50 (NCI/ADR-RES) was > 100 µM (inactive). For the same compound, the GI50 (COLO 205) was > 100 µM (inactive), the GI50 (NCI-H226) was > 100 µM (inactive) and the GI50 (EKVX) was > 100 µM (inactive). The GI50 (Malme-3M) was > 100 µM (inactive), the GI50 (HCC 2998) was > 100 µM (inactive) and the GI50 (UO-31) was > 100 µM (inactive). For the same compound, the GI50 (NCI-H23) was > 100 µM (inactive), the GI50 (MDA-N) was > 100 µM (inactive) and the GI50 (SF-295) was > 100 µM (inactive). The GI50 (SK-MEL-2) was > 100 µM (inactive), the GI50 (HT-29) was > 100 µM (inactive) and the GI50 (KM12) was > 100 µM (inactive). For the same compound, the GI50 (CCRF-CEM) was > 100 µM (inactive), the GI50 (MDA-MB-231) was > 100 µM (inactive) and the GI50 (786-0) was > 100 µM (inactive). For the same compound, the GI50 (OVCAR-8) was > 100 µM (inactive), the GI50 (RPMI-8226) was > 100 µM (inactive) and the GI50 (SF-539) was > 100 µM (inactive).
With `COc1cccc2c1[C@H](OC)[C@]13O[C@@]1(C2=O)[C@H](O)[C@H](C)[C@@](O)(C(=O)[C@@H]1O[C@H]1C)[C@@H]3O` the GI50 (K562) was 0.259 µM (active), the GI50 (SK-OV-3) was 0.21 µM (active) and the GI50 (PC-3) was 0.266 µM (active). The GI50 (A498) was 0.253 µM (active), the GI50 (MOLT-4) was 0.299 µM (active) and the GI50 (HOP-62) was 0.232 µM (active). The GI50 (A549) was 0.199 µM (active), the GI50 (UACC-62) was 0.298 µM (active) and the GI50 (SF-268) was 0.246 µM (active). For the same compound, the GI50 (HL-60) was 0.31 µM (active), the GI50 (T47D) was 0.313 µM (active) and the GI50 (SK-MEL-5) was 0.172 µM (active). The GI50 (RXF 393) was 0.245 µM (active), the GI50 (MCF7) was 0.294 µM (active) and the GI50 (HOP-92) was 0.194 µM (active). For the same compound, the GI50 (ACHN) was 0.211 µM (active), the GI50 (DU-145) was 0.282 µM (active) and the GI50 (UACC-257) was 0.225 µM (active). The GI50 (U-251) was 0.303 µM (active), the GI50 (Hs-578T) was 0.235 µM (active) and the GI50 (NCI-H522) was 0.185 µM (active). For the same compound, the GI50 (OVCAR-3) was 0.276 µM (active), the GI50 (MDA-MB-435) was 0.214 µM (active) and the GI50 (HCT-15) was 0.255 µM. For the same compound, the GI50 (IGROV-1) was 0.229 µM (active), the GI50 (OVCAR-4) was 0.208 µM (active) and the GI50 (NCI/ADR-RES) was 0.337 µM (active). The GI50 (COLO 205) was 0.165 µM (active), the GI50 (NCI-H226) was 0.335 µM (active) and the GI50 (EKVX) was 0.187 µM (active). For the same compound, the GI50 (Malme-3M) was 0.169 µM (active), the GI50 (LOX IMVI) was 0.237 µM (active) and the GI50 (NCI-H23) was 0.196 µM (active). The GI50 (MDA-N) was 0.265 µM (active), the GI50 (SF-295) was 0.218 µM (active) and the GI50 (SK-MEL-2) was 0.175 µM (active). For the same compound, the GI50 (TK-10) was 0.318 µM (active), the GI50 (KM12) was 0.318 µM (active) and the GI50 (SW-620) was 0.21 µM (active). For the same compound, the GI50 (SK-MEL-28) was 0.23 µM (active), the GI50 (CCRF-CEM) was 0.155 µM (active) and the GI50 (MDA-MB-231) was 0.202 µM (active). The GI50 (786-0) was 0.264 µM (active), the GI50 (OVCAR-8) was 0.217 µM (active) and the GI50 (RPMI-8226) was 0.172 µM (active).

From ChEMBL document CHEMBL1201862, “PubChem BioAssay data set” (2004)
